Test results: patent publication US20260258397A1, “REAGENTS AND SYSTEMS FOR […]” (priority 2023, published 2026)

How the values were obtained:
[1] = system: PYR1 mutant receptors (ligand-dependent binding to HAB1); test: Yeast two-hybrid screens of PYR1 DSM and CB-S libraries for cannabinoid sensors
[2] = molecular target: T1, PYR1^WIN-M (Arabidopsis thaliana, UniProt O49686, A160I/D26G/F159A/H60P/K59Q/N90S/Y23H); test: PYR1 ELISA-like plate assay, immobilized PYR1^WIN-M with biotinylated ΔN-HAB1^T+; type: binding; details: PYR1^WIN-M ELISA-like format
T1 construct: made in house; host or cells: E. coli
T1 sequence (O49686 whole entry Y23H/D26G/K59Q/H60P/N90S/F159A/A160I, other chains not shown): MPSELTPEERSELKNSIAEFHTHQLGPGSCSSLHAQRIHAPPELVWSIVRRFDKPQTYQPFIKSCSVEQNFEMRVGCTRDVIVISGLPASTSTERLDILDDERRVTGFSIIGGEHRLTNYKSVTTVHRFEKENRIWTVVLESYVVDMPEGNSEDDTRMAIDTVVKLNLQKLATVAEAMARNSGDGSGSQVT
Protocol: PYR1 was immobilized overnight in clear plates, blocked with KPL milk diluent in buffer CBS ^17 (CBSM). All binding reactions were performed using CBSM. Detection was performed via binding a streptavidin-HRP conjugate to biotinylated ΔN-HAB1^T+ followed by incubation with a commercial TMB reagent. Lower limits of detection (LODs) were determined by linear regression of the response data in the low linear range using the formula LOD=3σy/m, where m is the slope of the response line and σy is the standard error of the y intercept using data combined from biological replicates.
Unconjugated 6×His-MBP-PYR1 variants were immobilized to Microlon clear plates (655081) using 100 μL of CBS without pH modification, at a protein concentration of 100 μg mL^−1, or 1.57 AM at 4° C. overnight. Wells assigned as no PYR controls received only CBS. Plates were sealed using Microseal B adhesive sealers (BioRad MSB-1001). […] The pellet was stored on ice until the blocked and washed plates were ready to receive the binding reactions. ΔN-HAB1^T+ was exchanged into CBSM with 1 mM DTT and 1 mM TCEP (CBSM++) using Zeba™ spin desalting columns (Thermo) were equilibrated with CBSM++. ΔN-HAB1^T+ was diluted to 10× the final binding reaction concentration and was immediately added to the pre-assembled assays in PCR plates, which were mixed by pipetting and transferred to the washed, blocked Microlon plates. […]

Q: Which results are given for `Cc1c(C(=O)c2cccc3ccccc23)c2cccc3c2n1[C@H](CN1CCOCC1)CO3` [WIN 55,212-2]?
A: affinity of improved sensors ([1]; CB-S2 library screened on 50 nM, 25 nM: JWH-015 PYR1 K59N/Y120H/F159L/A160G, JWH-016 V81I/Y120G/F159L/A160G, JWH-072 E4G/K59N/Y120H/F159L/A160G, WIN 55,212 E4G/Y23H/D26G/K59Q/F159A/A160I): low nM affinity; outcome of DSM library Y2H selection ([1]; DSM library selected on 30 μM ligand, hits for 'pM concentrations' as printed): double mutant hits; average LOD from two biological replicates [2]: 0.21 ng/ml
